Key:
Format in all cases: in vivo
[1] = system: Alopecurus myosuroides; experiment: Pre-emergence herbicidal effect; conditions: 80 g/ha, scored visually after 3 weeks, 100% = plants have died, 0% = like control plants
From the text: (§1) Seeds of monocotyledonous and dicotyledonous weed plants and crop plants are laid out in sandy loam soil in wood-fiber pots and covered with soil. The compounds of the invention, formulated in the form of wettable powders (WP) or as emulsion concentrates (EC), are then applied to the surface of the covering soil as aqueous suspension or emulsion at a water application rate equating to 600 to 800 L/ha with addition of 0.2% wetting agent.
(§2) After the treatment, the pots are placed in a greenhouse and kept under good growth conditions for the trial plants. The damage to the test plants is scored visually after a test period of 3 weeks by comparison with untreated controls (herbicidal activity in percent (%): 100% activity=the plants have died, 0% activity=like control plants).

[2] = system: Avena fatua; experiment: Pre-emergence herbicidal effect; conditions: 80 g/ha, scored visually after 3 weeks, 100% = plants have died, 0% = like control plants
From the text: as §1, §2

[3] = system: Echinochloa crus-galli; experiment: Pre-emergence herbicidal effect; conditions: 80 g/ha, scored visually after 3 weeks, 100% = plants have died, 0% = like control plants
From the text: as §1, §2

[4] = system: Hordeum murinum; experiment: Pre-emergence herbicidal effect; conditions: 80 g/ha, scored visually after 3 weeks, 100% = plants have died, 0% = like control plants
From the text: as §1, §2

[5] = system: Lolium rigidum; experiment: Pre-emergence herbicidal effect; conditions: 80 g/ha, scored visually after 3 weeks, 100% = plants have died, 0% = like control plants
From the text: as §1, §2

[6] = system: Setaria viridis; experiment: Pre-emergence herbicidal effect; conditions: 80 g/ha, scored visually after 3 weeks, 100% = plants have died, 0% = like control plants
From the text: as §1, §2

[7] = system: Alopecurus myosuroides; experiment: Post-emergence herbicidal effect; conditions: 80 g/ha, post-emergence at one-leaf stage, assessed visually after about 3 weeks; 100% = plants have died, 0% = like control plants
Protocol: (§3) Seeds of monocotyledonous and dicotyledonous weed and crop plants are laid out in sandy loam soil in wood-fiber pots, covered with soil and cultivated in a greenhouse under good growth conditions. 2 to 3 weeks after sowing, the test plants are treated at the one-leaf stage. The compounds of the invention, formulated in the form of wettable powders (WP) or as emulsion concentrates (EC), are then sprayed onto the green parts of the plants as aqueous suspension or emulsion at a water application rate equating to 600 to 800 l/ha with addition of 0.2% wetting agent. After the test plants have been left to stand in the greenhouse under optimal growth conditions for about 3 weeks, the action of the preparations is assessed visually in comparison to untreated controls (herbicidal action in per cent (%): 100% activity=the plants have died, 0% activity=like control plants).

[8] = system: Digitaria sanguinalis; experiment: Post-emergence herbicidal effect; conditions: 80 g/ha, post-emergence at one-leaf stage, assessed visually after about 3 weeks; 100% = plants have died, 0% = like control plants
Protocol: as §3

[9] = system: Echinochloa crus-galli; experiment: Post-emergence herbicidal effect; conditions: 80 g/ha, post-emergence at one-leaf stage, assessed visually after about 3 weeks; 100% = plants have died, 0% = like control plants
Protocol: as §3

[10] = system: Hordeum murinum; experiment: Post-emergence herbicidal effect; conditions: 80 g/ha, post-emergence at one-leaf stage, assessed visually after about 3 weeks; 100% = plants have died, 0% = like control plants
Protocol: as §3

[11] = system: Lolium rigidum; experiment: Post-emergence herbicidal effect; conditions: 80 g/ha, post-emergence at one-leaf stage, assessed visually after about 3 weeks; 100% = plants have died, 0% = like control plants
Protocol: as §3

[12] = system: Setaria viridis; experiment: Post-emergence herbicidal effect; conditions: 80 g/ha, post-emergence at one-leaf stage, assessed visually after about 3 weeks; 100% = plants have died, 0% = like control plants
Protocol: as §3

Structure (SMILES) | Pre-emergence action against ALOMY (herbicidal activity in percent) [1] | Pre-emergence action against AVEFA (herbicidal activity in percent) [2] | Pre-emergence action against ECHCG (herbicidal activity in percent) [3] | Pre-emergence action against HORMU (herbicidal activity in percent) [4] | Pre-emergence action against LOLRI (herbicidal activity in percent) [5] | Pre-emergence action against SETVI (herbicidal activity in percent) [6] | Post-emergence action against ALOMY (herbicidal action in per cent) [7] | Post-emergence action against DIGSA (herbicidal action in per cent) [8] | Post-emergence action against ECHCG (herbicidal action in per cent) [9] | Post-emergence action against HORMU (herbicidal action in per cent) [10] | Post-emergence action against LOLRI (herbicidal action in per cent) [11] | Post-emergence action against SETVI (herbicidal action in per cent) [12]
C#Cc1cc(Br)c(C2=C(O)C3(CCCC(OCCC)C3)NC2=O)c(OC)c1 (stereo not drawn) [Example 1.1.01] | 90% | 100% | 100% | 90% | 100% | 100% | 90% | 90% | 100% | 80% | 90% | 100%
C#Cc1cc(Br)c(C2=C([O-])C3(CCCC(OCCC)C3)NC2=O)c(OC)c1.[Na+] (stereo not drawn) [Example 1.1.02] | 100% | 100% | 100% | 100% | 100% | 100% | 100% | 100% | 100% | 100% | 100% | 100%
C#Cc1cc(Br)c(C2=C([O-])C3(CCCC(OCCOC)C3)NC2=O)c(OC)c1.[Na+] (stereo not drawn) [Example 1.1.06] | 100% | 100% | 100% | 100% | 100% | 100% | 100% | 100% | 100% | 90% | 100% | 90%
CC#Cc1cc(Br)c(C2=C(OC(=O)OCC)C3(CCCC(OCCOC)C3)NC2=O)c(OCC)c1 (stereo not drawn) [Example 1.1.19] | – | – | – | – | – | – | 100% | 100% | 100% | 100% | 100% | 100%
